Calls of active or inactive are those of the source. The calls are words filed in the database; no cut-off is given here.
How the values were obtained:
Huh-7 [1] = experiment: Antiproliferative activity against human Huh-7 cells incubated for 3 days by CCK8 assay; type: functional, cell-based; conditions: Huh-7, 72 h
HEK293T = experiment: Inhibition of TEAD (unknown origin) expressed in HEK293T cells transfected with 8xGTIIC-luciferase at 10 uM by dual luciferase reporter assay relative to control; type: cell-based; conditions: Homo sapiens
Huh-7 [2] = experiment: Antitumor activity against human Huh-7 cells xenografted in NSG mouse assessed as tumor growth inhibition at 100 mg/kg, po administered every 3 days for 24 days and measured every 3 days; type: functional; conditions: Huh-7, 576 h, time 24 day, read-out: TGI
Huh-7 [3] = experiment: Inhibition of TEAD transcription in human Huh-7 cells transfected with 8xGTIIC-luciferase assessed as downregulation of CTGF protein expression by Western blotting analysis; type: cell-based; conditions: dose 1.25-15 µM
[4] = biological target: Transcriptional enhancer factor TEF-4 (Homo sapiens) (UniProt Q15562); experiment: Covalent binding affinity to human TEAD2-YBD (217 to 447 residues) assessed as change in protein mass at 50 uM incubated for 15 hrs by mass spectrometry analysis
Transcriptional enhancer factor TEF-4 (Homo sapiens), sequence (Q15562 whole entry, the tested form may be a part): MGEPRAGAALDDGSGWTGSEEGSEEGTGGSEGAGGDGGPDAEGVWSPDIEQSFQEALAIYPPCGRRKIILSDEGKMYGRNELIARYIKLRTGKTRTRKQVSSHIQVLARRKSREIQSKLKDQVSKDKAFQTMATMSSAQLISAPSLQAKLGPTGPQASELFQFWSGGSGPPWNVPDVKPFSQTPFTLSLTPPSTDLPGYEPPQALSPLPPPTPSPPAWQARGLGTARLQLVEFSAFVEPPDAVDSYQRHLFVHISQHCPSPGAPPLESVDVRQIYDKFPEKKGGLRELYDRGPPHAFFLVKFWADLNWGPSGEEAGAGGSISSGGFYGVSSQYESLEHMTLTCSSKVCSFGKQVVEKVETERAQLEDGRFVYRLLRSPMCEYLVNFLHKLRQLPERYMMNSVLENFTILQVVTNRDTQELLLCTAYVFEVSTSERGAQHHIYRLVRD

[5] = (§1) Inhibition of TEAD transcription in human Huh-7 cells transfected with 8xGTIIC-luciferase by dual luciferase reporter assay; type: cell-based
Huh-7 [6] = experiment: as §1; type: cell-based
Mus musculus [7] = experiment: Downregulation of CTGF mRNA expression in C57BL/6 mouse hepatoblastoma tumor at 25 mg/kg, ip administered twice a week for 9 weeks and measured after 2 days post last drug treatment by qRT-PCR analysis; type: functional, organism-based; conditions: time 65.0 day
HepG2 [8] = experiment: Inhibition of TEAD transcription in human HepG2 cells assessed as downregulation of CYR61 mRNA expression incubated for 24 hrs by RT-PCR analysis; type: cell-based; conditions: dose 0.5-15 µM
NCI-H226 [9] = experiment: Disruption of TAZ to TEAD protein-protein interaction in human NCI-H226 cells at 1 to 2.5 uM incubated for 24 hrs by Coimmunoprecipitation method; type: cell-based; conditions: dose 1-2.5 µM
Mus musculus [10] = experiment: In vivo inhibition of TEAD transcription in NSG mouse xenografted with human Huh-7 cells assessed as decrease in CYR61 expression at 50 mg/kg, ip administered every 3 days for 24 days by Western blotting analysis; type: functional, organism-based; conditions: time 24.0 day
Mus musculus [11] = experiment: Downregulation of CTGF protein expression in C57BL/6 mouse hepatoblastoma tumor at 25 mg/kg, ip administered twice a week for 9 weeks and measured after 2 days post last drug treatment by Western blotting analysis; type: functional, organism-based; conditions: time 65.0 day
Huh-7 [12] = experiment: Antitumor activity against human Huh-7 cells xenografted in NSG mouse assessed as tumor growth inhibition at 50 mg/kg, ip administered every 3 days for 24 days and measured every 3 days; type: functional; conditions: Huh-7, 576 h, time 24 day, read-out: TGI
[13] = AUCinfinity in Sprague-Dawley rat at 50 mg/kg, ip measured upto 24 hrs by LC-MS/MS analysis; type: ADME, organism-based; conditions: in vivo
HepG2 [14] = experiment: Induction of apoptosis in human HepG2 cells assessed as total apoptotic cells at 10 uM incubated for 48 hrs by Annexin V/PI staining based flow cytometry analysis; type: functional
Huh-7 [15] = experiment: Induction of apoptosis in human Huh-7 cells assessed as total apoptotic cells at 5 uM incubated for 48 hrs by Annexin V/PI staining based flow cytometry analysis; type: functional
HepG2 [16] = experiment: Induction of cell cycle arrest in human HepG2 cells assessed as accumulation of G1 phase cells at 5 to 10 uM incubated for 48 hrs by propidium iodide staining based flow cytometry; type: functional; conditions: dose 5-10 µM
Mus musculus [17] = experiment: Downregulation of Gpc3 mRNA expression in C57BL/6 mouse hepatoblastoma tumor at 25 mg/kg, ip administered twice a week for 9 weeks and measured after 2 days post last drug treatment by qRT-PCR analysis; type: functional, organism-based; conditions: time 65.0 day
Homo sapiens = organism: Homo sapiens; experiment: Covalent binding affinity to human TEAD2-YBD C380S mutant variant assessed as change in protein mass at 50 uM incubated for 15 hrs by mass spectrometry analysis
Mus musculus [18] = experiment: In vivo inhibition of TEAD transcription in NSG mouse xenografted with human Huh-7 cells assessed as decrease in CTGF expression at 50 mg/kg, ip administered every 3 days for 24 days by Western blotting analysis; type: functional, organism-based; conditions: time 24.0 day
NCI-H226 [19] = experiment: Disruption of YAP to TEAD protein-protein interaction in human NCI-H226 cells at 1 uM incubated for 24 hrs by Coimmunoprecipitation method; type: cell-based
Huh-7 [20] = experiment: Inhibition of TEAD transcription in human Huh-7 cells transfected with 8xGTIIC-luciferase assessed as downregulation of CYR61 mRNA expression incubated for 24 hrs by RT-PCR analysis; type: cell-based; conditions: dose 0.5-15 µM
HepG2 [21] = experiment: Antiproliferative activity against human HepG2 cells incubated for 3 days by CCK8 assay; type: functional, cell-based; conditions: HepG2, 72 h
HepG2 [22] = experiment: Inhibition of TEAD transcription in human HepG2 cells assessed as downregulation of CTGF mRNA expression incubated for 24 hrs by RT-PCR analysis; type: cell-based
NCI-H226 [23] = experiment: Disruption of YAP to TEAD protein-protein interaction in human NCI-H226 cells at 2.5 uM incubated for 24 hrs by Coimmunoprecipitation method; type: cell-based
Hepatoblastoma cell line [24] = experiment: Antitumor activity against C57BL/6 mouse hepatoblastoma assessed as reduction in number of proliferating cells at 25 mg/kg, ip administered twice a week for 9 weeks and measured after 2 days post last drug treatment by Ki67 staining based immunohistochemistry assay; type: functional, organism-based; conditions: time 65.0 day
NCI-H2452 = experiment: Antiproliferative activity against human NCI-H2452 cells incubated for 3 days by CCK8 assay; type: functional, cell-based; conditions: NCI-H2452, 72 h
[25] = MRTinfinity in Sprague-Dawley rat at 50 mg/kg, ip measured upto 24 hrs by LC-MS/MS analysis; type: ADME, organism-based; conditions: in vivo
Huh-7 [26] = experiment: Induction of cell cycle arrest in human Huh-7 cells assessed as increase in G1 phase cells at 5 to 10 uM incubated for 48 hrs by propidium iodide staining based flow cytometry (reference value: 36.4%); type: functional; conditions: dose 5-10 µM
Mus musculus [27] = experiment: Downregulation of Cyr61 mRNA expression in C57BL/6 mouse hepatoblastoma tumor at 25 mg/kg, ip administered twice a week for 9 weeks and measured after 2 days post last drug treatment by qRT-PCR analysis; type: functional, organism-based; conditions: time 65.0 day
NCI-H226 [28] = experiment: Antiproliferative activity against human NCI-H226 cells incubated for 3 days by CCK8 assay; type: functional, cell-based; conditions: NCI-H226, 72 h
[29] = Toxicity in NSG mouse assessed as change in body weight at 50 mg/kg, ip administered every 3 days for 24 days in presence of sorafenib and measured every 3 days; type: organism-based; conditions: in vivo, 576 h, time 24 day
Mus musculus [30] = experiment: Downregulation of Afp mRNA expression in C57BL/6 mouse hepatoblastoma tumor at 25 mg/kg, ip administered twice a week for 9 weeks and measured after 2 days post last drug treatment by qRT-PCR analysis; type: functional, organism-based; conditions: time 65.0 day
Mus musculus [31] = experiment: Downregulation of Ccnd1 mRNA expression in C57BL/6 mouse hepatoblastoma tumor at 25 mg/kg, ip administered twice a week for 9 weeks and measured after 2 days post last drug treatment by qRT-PCR analysis; type: functional, organism-based; conditions: time 65.0 day
Hs-578T = experiment: Antiproliferative activity against human Hs-578T cells incubated for 3 days by CCK8 assay; type: functional, cell-based; conditions: 72 h
[32] = Half life in Sprague-Dawley rat at 50 mg/kg, ip measured upto 24 hrs by LC-MS/MS analysis; type: ADME, organism-based; conditions: in vivo
Mus musculus [33] = experiment: Downregulation of Cyr61 protein expression in C57BL/6 mouse hepatoblastoma tumor at 25 mg/kg, ip administered twice a week for 9 weeks and measured after 2 days post last drug treatment by Western blotting analysis; type: functional, organism-based; conditions: time 65.0 day
Hepatoblastoma cell line [34] = experiment: Antitumor activity against C57BL/6 mouse hepatoblastoma assessed as reduction in tumor size at 25 mg/kg, ip administered twice a week for 9 weeks and measured after 2 days post last drug treatment; type: functional, organism-based; conditions: time 65.0 day
Hepatoblastoma cell line [35] = experiment: Antitumor activity against C57BL/6 mouse hepatoblastoma assessed as reduction in tumor occurrence at 25 mg/kg, ip administered twice a week for 9 weeks and measured after 2 days post last drug treatment; type: functional, organism-based; conditions: time 65.0 day
[36] = Cmax in Sprague-Dawley rat at 50 mg/kg, ip measured upto 24 hrs by LC-MS/MS analysis; type: ADME, organism-based; conditions: in vivo
Huh-7 [37] = experiment: Induction of cell cycle arrest in human Huh-7 cells assessed as decrease in G2 phase cells at 5 to 10 uM incubated for 48 hrs by propidium iodide staining based flow cytometry; type: functional; conditions: dose 5-10 µM
[38] = AUClast in Sprague-Dawley rat at 50 mg/kg, ip measured upto 24 hrs by LC-MS/MS analysis; type: ADME, organism-based; conditions: in vivo
Huh-7 [39] = experiment: Induction of cell cycle arrest in human Huh-7 cells assessed as decrease in S phase cells at 5 to 10 uM incubated for 48 hrs by propidium iodide staining based flow cytometry; type: functional; conditions: dose 5-10 µM
Huh-7 [40] = experiment: Induction of apoptosis in human Huh-7 cells assessed as total apoptotic cells at 10 uM incubated for 48 hrs by Annexin V/PI staining based flow cytometry analysis; type: functional
[41] = Tmax in Sprague-Dawley rat at 50 mg/kg, ip measured upto 24 hrs by LC-MS/MS analysis; type: ADME, organism-based; conditions: in vivo
Huh-7 [42] = experiment: Antitumor activity against human Huh-7 cells xenografted in NSG mouse assessed as tumor growth inhibition at 50 mg/kg, ip administered every 3 days for 24 days in presence of sorafenib and measured every 3 days; type: functional; conditions: Huh-7, 576 h, time 24 day, read-out: TGI

## N#C/C(=C\c1c[nH]c2cc(Cl)c(OCC3CCC(F)(F)CC3)cc12)C(N)=O
Huh-7 [1]
  IC50: 5.3 µM
HEK293T
  inhibition: 60.1%

## O=C(CCl)NCc1c[nH]c2cc(Cl)c(OCc3cccc(C(F)(F)F)c3)cc12
Huh-7 [1]
  IC50: 8.3 µM
HEK293T
  inhibition: 47.9%

## CNC(=O)c1cc(Oc2ccc(NC(=O)Nc3ccc(Cl)c(C(F)(F)F)c3)cc2)ccn1 [SORAFENIB]
Huh-7 [2]
  inhibition in vivo at 100 mg/kg: 76%

## C=C(CN(C)C)C(=O)NCc1c[nH]c2cc(Cl)c(OCc3ccccc3)cc12
Huh-7 [1]
  IC50: 2 µM
HEK293T
  inhibition: 71.8%

## C=CC(=O)NCc1c[nH]c2cc(Cl)c(OCc3ccc4ccccc4c3)cc12
Huh-7 [1]
  IC50: 30.2 µM
HEK293T
  inhibition: 1.5%

## C=CC(=O)NCc1c[nH]c2cc(Cl)c(OCc3ccccc3)cc12
Huh-7 [1]
  IC50: > 50 µM

## O=C(CCl)c1c[nH]c2cc(Cl)c(OCc3cccc(C(F)(F)F)c3)cc12
Huh-7 [3]
  inhibition: Dose-Dependent Effect
[4]
  Activity: Active
[5]
  IC50: 629 nM
Huh-7 [6]
  inhibition: Dose-Dependent Effect
Mus musculus [7]
  Activity: Active
HepG2 [8]
  inhibition: Dose-Dependent Effect
NCI-H226 [9]
  Activity: inactive
Mus musculus [10]
  inhibition: Active
Mus musculus [11]
  Activity: Active
Huh-7 [12]
  inhibition in vivo at 50 mg/kg: 75%
Huh-7 [1]
  IC50: 0.9 µM
[13]
  AUC(0-inf): 208 ng·h/mL
HepG2 [14]
  Activity: 69%
Huh-7 [15]
  Activity: 66.8%
HepG2 [16]
  Activity: Active
Mus musculus [17]
  Activity: Active
Homo sapiens
  Activity: inactive
Mus musculus [18]
  inhibition: Active
NCI-H226 [19]
  Activity: Active
Huh-7 [20]
  inhibition: Dose-Dependent Effect
HepG2 [21]
  IC50: 2400 nM
HepG2 [22]
  inhibition: Dose-Dependent Effect
NCI-H226 [23]
  Activity: 100%
Hepatoblastoma cell line [24]
  Activity: Active
NCI-H2452
  IC50: 11 µM
[25]
  MRT inf: 9.65 h
Huh-7 [26]
  Activity: 58.2%
Mus musculus [27]
  Activity: Active
NCI-H226 [28]
  IC50: 400 nM
[29]
  Activity: Non-Toxic
Mus musculus [30]
  Activity: Active
Mus musculus [31]
  Activity: Active
Hs-578T
  IC50: 2600 nM
HEK293T
  inhibition: 93.6%
[32]
  half-life: 389 min
Mus musculus [33]
  Activity: Active
Hepatoblastoma cell line [34]
  Activity: Active
Hepatoblastoma cell line [35]
  Activity: Active
[36]
  Cmax: 28 ng/mL
Huh-7 [37]
  Activity: Active
[38]
  AUC(0-t) at 24 h: 175 ng·h/mL
Huh-7 [39]
  Activity: Active
Huh-7 [40]
  Activity: 83.5%
[41]
  Tmax: 2.67 h
Huh-7 [42]
  inhibition in vivo at 50 mg/kg: 93%

## O=C(CCl)c1c[nH]c2ccc(OCc3ccccc3)cc12
Huh-7 [1]
  IC50: 10.5 µM
HEK293T
  inhibition: 20.5%

## O=C(CCl)c1c[nH]c2ccc(OCc3ccc4ccccc4c3)cc12
Huh-7 [1]
  IC50: > 20 µM
HEK293T
  inhibition: 5.3%

## O=C(CCl)c1c[nH]c2cc(Cl)c(OCc3ccccc3)cc12
Huh-7 [1]
  IC50: 2.7 µM
HEK293T
  inhibition: 74.6%

## O=C(CCl)c1c[nH]c2cc(Cl)c(OCc3ccc(C(F)(F)F)cc3)cc12
Huh-7 [1]
  IC50: 16.9 µM

## O=C(CCl)c1c[nH]c2cc(Cl)c(OCc3cccc4ccccc34)cc12
Huh-7 [1]
  IC50: 1.6 µM
HEK293T
  inhibition: 69.4%

## COc1cc2[nH]cc(C(=O)CCl)c2cc1OCc1ccccc1
Huh-7 [1]
  IC50: 3.8 µM
HEK293T
  inhibition: 53.7%

## COc1cc2[nH]cc(C(=O)CCl)c2cc1OCc1ccc2ccccc2c1
Huh-7 [1]
  IC50: 2.4 µM
HEK293T
  inhibition: 93.9%

From ChEMBL document CHEMBL5614440, “Development of Novel Indole-Based Covalent Inhibitors of TEAD as Potential Antiliver Cancer Agents” (J Med Chem, 2024)
